Assay results reported in US11351218B2, “Composition for preventing or treating glioblastoma comprising Platycodon grandiflorum A. De Candolle, Scutellaria baicalensis, Phellodendron amurense Ruprecht or Rubus coreanus” (University-Industry Cooperation Group of Kyung Hee …, priority 2019, dated 2022).

What was measured:
U87MG and U373MG cells = assay: Cell morphology (vacuole formation) under optical microscope, GBM cells; format: cell-based, human; conditions: 10 μM PD, 24 hours
Experimental: FIGS. 6A and 6B show the results that PD induces a decrease in cell viability and vacuole formation. […] Data shown represent the means of quintuplicate measurements which were repeated three times. The results are presented as a percentage of control (means±SD).
Inhibition of autophagy has been reported to cause cancer cell death. Therefore, the cytotoxic effects of PD on U87MG, U373MG, and normal astrocytes were examined. After treating these cells with various doses of PD for 48 hours, their cell viability was analyzed by WST1 assays. […] As can be confirmed in FIG. 6B, morphological changes were also visualized by an optical microscope after exposure of GBM cells to 10 μM PD for 24 hours.

[1] = test system: PARP, caspase-3, BCL-2 and BAX; assay: Immunoblot of apoptosis markers (PARP, caspase-3, BCL-2, BAX) in GBM cells; format: cell-based, human; conditions: PD, 24 hours
Experimental: FIGS. 7A and 7B show the results that PD induces non-apoptotic cell death. […] GAPDH was used as a loading control. […] Data shown represent the means of quintuplicate measurements which were repeated three times. The results are presented as a percentage of control (means±SD).
(§1) Cells treated with the concentrations and materials described in FIGS. 1-3B, 7, 8, 10, 13, 16, 18, and 20 were lysed in buffer containing 20 mM Tris-HCl (pH 7.5), 150 mM NaCl, 1 mM EDTA, 1 mM Na2EDTA, 1 mM EGTA, 1% NP-40, 1% sodium deoxycholate, 1 mM Na3VO4, 1 mM MPI, 1 mM PMSF, and PI cocktails for 15 to 20 minutes on ice. Cell lysates were separated by SDS-PAGE and transferred to nitrocellulose membranes. Immunodetection was performed with the following primary antibodies: rabbit anti-LC3B, rabbit anti-cathepsin B, rabbit-anti GAPDH (Cell Signaling Technology, Danvers, Mass.), mouse anti-SQSTM1/p62, and goat anti-cathepsin D (Santa CruzKPL, Gaithersburg, Md., USA) were incubated at room temperature for 1 hour. The protein bands were detected with ECL western Blotting Substrate (Thermo Fisher Scientific, Waltham, Mass., USA).
Therefore, whether PD-mediated autophagy inhibition promotes apoptosis in GBM cells was examined by western blot analysis. Activation of caspase-3 and cleavage of its substrate, PARP, are hallmarks of apoptosis. […]

[2] = test system: A549, H358, MCF7, HT29 and HepG2 cells; assay: Immunoblot of LC3B and SQSTM1 in several cancer cell lines; format: cell-based; conditions: 24 hours, dose-dependent, all cancer cells tested
Experimental: After treatment with indicated concentrations of PD or PG for 24 hours, the protein levels of LC3B and SQSTM1 were detected by immunoblot analysis in several cancer cell lines including A549 and H358 (lung cancer), MCF7 (breast cancer), HT29 (colon cancer), and HepG2 (liver cancer). GAPDH was used as a loading control.
as §1
In these studies, they were carried out to examine the accumulation of LC3B-II without checking p62 levels upon PD treatment and conclusions were drawn that PD acts as an inducer of autophagic cell death in these cancer cells. […]

[3] = test system: A549, H358, MCF7, HT29 and HepG2 cells; assay: WST1 cell viability assay in various cancer cell lines; format: cell-based; conditions: different concentrations, 48 hours, all cell lines tested
Experimental: FIGS. 9A to 9C show the results that PD decreases cell viability and vacuole formation in various cancer cell lines. FIGS. 9A and 9B show the results in which indicated cells were treated with different concentrations of PG or PD for 48 hours and cell viability was measured by WST1 assay. Data shown represent the means of quintuplicate measurements which were repeated three times. The results are presented as a percentage of control (means±SD).
Cell cytotoxicity was assessed by WST1 assay. U87 and U373 cells were each seeded in a 96-well plate (5×10^3 cells/well) and treated with different concentrations of platycodin D (PD). Then, cells were incubated with a WST1 reagent (Dogen, Seoul, Korea) for 2 hours before reading the plate. Absorbance was measured at 450 nm using an ELISA reader (Versa Max, Molecular Devices, Sunnyvale, Calif., USA).
Previously, PD was reported to inhibit cell viability in various cancer cell lines. To further confirm the effects of PD on the cytotoxicity of cancer cells, WST1 assay was performed following treatment with different concentrations of PD.

normal astrocytes = assay: BODIPY FL LDL uptake assay, normal astrocytes; format: cell-based, human; conditions: PD 10 μM or U18 1 μM, 24 hours
Experimental: Cells were treated with DMSO, PD (10 μM), or U18 (1 μM) for 24 hours and subsequently loaded with BODIPY™ FL LDL. BODIPY-LDL uptake was visualized by confocal microscopy. Nuclei were stained with DAPI (blue). Quantification shown on the right graph represents a relative fold change from three independent experiments±SD.
Cells seeded on coverslips were treated with the materials and then the culture medium was replaced with BODIPY™ FL LDL (Thermo Fisher Scientific) at a working concentration of 5 μg/mL in a medium. The cells were additionally incubated at 37° C. for 1 hour. The degree of LDL uptake was measured using a Zeiss laser confocal microscope.
Based on the previous study results of the present inventors that PD increases cell surface LDLR expression and accumulate cholesterol within lysosomes, whether PD can increase the uptake of exogenous LDL was examined Cells pretreated with PD or U18666A were incubated with BODIPY FL-labeled LDL particles for 1 hour and the LDL uptake was observed by a confocal microscope. Upon analysis of these cells, it was observed that PD caused about a 6-fold increase in LDL uptake and it was a level similar to that detected in the U18666A-treated cells.

`C[C@@H]1O[C@@H](O[C@H]2[C@H](OC(=O)[C@]34CCC(C)(C)C[C@H]3C3=CC[C@@H]5[C@@]6(C)C[C@H](O)[C@H](O[C@@H]7O[C@H](CO)[C@@H](O)[C@H](O)[C@H]7O)C(CO)(CO)[C@@H]6CC[C@@]5(C)[C@]3(C)C[C@H]4O)OC[C@H](O)[C@@H]2O)[C@H](O)[C@H](O)[C@H]1O[C@@H]1OC[C@@H](O)[C@H](O[C@@H]2OC[C@](O)(CO)[C@H]2O)[C@H]1O` [PD, platycodin D] was tested, and the “cell morphology (cytoplasmic vacuoles)” value (U87MG and U373MG cells) was “exhibited cytoplasmic vacuoles”, the “caspase-3 activation and PARP cleavage” value [1] was “no significant induction” and the “expressions of Bcl2 and BAX” value [1] was “not changed”. For the same compound, the “level of p62 together with LC3-II” value [2] was “enhanced level”, the cell viability [3] was “suppressed the-viability in a dose-dependent manner” and the LDL uptake (normal astrocytes) was “less effective”.
